{
  "source": "patent US12544395B2",
  "about": "“Combination compositions comprising a beta-lactamase inhibitor and uses thereof” (priority 2018, dated 2026)",
  "assay_type_in_all_cases": "cell-based",
  "key": {"[1]": {"system": "K. pneumoniae 115468", "assay": "Broth microdilution MIC (strain enzymes: TEM-1)"}, "[2]": {"system": "K. pneumoniae 304487", "assay": "Broth microdilution MIC (strain enzymes: SHV-12,TEM-1)"}, "[3]": {"system": "K. pneumoniae ESBL 7 #1", "assay": "Broth microdilution MIC (strain enzymes: SHV-12, TEM-1)"}, "[4]": {"system": "K. oxytoca 176877", "assay": "Broth microdilution MIC (strain enzymes: SHV-105)"}, "[5]": {"system": "K. pneumoniae KP 3", "assay": "Broth microdilution MIC (strain enzymes: SHV-1, TEM-1)"}, "[6]": {"system": "K. pneumoniae SI-KP NO30", "assay": "Broth microdilution MIC (strain enzymes: TEM-26b, SHV-60, SHV-26)"}},
  "data": [
    {"smiles": "CCC(=O)N[C@H]1Cc2cccc(C(=O)O)c2OB1O", "note": "[Compound 2, (R)-2-hydroxy-3-propionamido-3,4-dihydro-2H-benzo[e][1,2]oxaborinine-8-carboxylic acid]", "values": [
      {"measurement": "MIC of cefalexin (LEX)", "setting": "[1]; with inhibitor at 2 μg/mL", "value": 0.25, "unit": "µg/mL"},
      {"measurement": "MIC of cefdinir (CDR)", "setting": "[1]; with inhibitor at 2 μg/mL", "value": 0.25, "unit": "µg/mL"},
      {"measurement": "MIC of cefixime (CFM)", "setting": "[1]; with inhibitor at 2 μg/mL", "value": 0.5, "unit": "µg/mL"},
      {"measurement": "MIC of ceftibuten (CTB)", "setting": "[1]; with inhibitor at 2 μg/mL", "value": 0.06, "unit": "µg/mL"},
      {"measurement": "MIC of cefalexin (LEX)", "setting": "[1]; with inhibitor at 4 μg/mL", "value": 0.125, "unit": "µg/mL"},
      {"measurement": "MIC of cefdinir (CDR)", "setting": "[1]; with inhibitor at 4 μg/mL", "value": 0.125, "unit": "µg/mL"},
      {"measurement": "MIC of cefixime (CFM)", "setting": "[1]; with inhibitor at 4 μg/mL", "value": 0.5, "unit": "µg/mL"},
      {"measurement": "MIC of ceftibuten (CTB)", "setting": "[1]; with inhibitor at 4 μg/mL", "value": 0.06, "unit": "µg/mL"},
      {"measurement": "MIC of cefalexin (LEX)", "setting": "[2]; with inhibitor at 1 μg/mL", "value": 1, "unit": "µg/mL"},
      {"measurement": "MIC of cefdinir (CDR)", "setting": "[2]; with inhibitor at 1 μg/mL", "value": 1, "unit": "µg/mL"},
      {"measurement": "MIC of cefixime (CFM)", "setting": "[2]; with inhibitor at 1 μg/mL", "value": 1, "unit": "µg/mL"},
      {"measurement": "MIC of ceftibuten (CTB)", "setting": "[2]; with inhibitor at 1 μg/mL", "value": 0.25, "unit": "µg/mL"},
      {"measurement": "MIC of cefalexin (LEX)", "setting": "[2]; with inhibitor at 2 μg/mL", "value": 1, "unit": "µg/mL"},
      {"measurement": "MIC of cefdinir (CDR)", "setting": "[2]; with inhibitor at 2 μg/mL", "value": 1, "unit": "µg/mL"},
      {"measurement": "MIC of cefixime (CFM)", "setting": "[2]; with inhibitor at 2 μg/mL", "value": 1, "unit": "µg/mL"},
      {"measurement": "MIC of ceftibuten (CTB)", "setting": "[2]; with inhibitor at 2 μg/mL", "value": 0.25, "unit": "µg/mL"},
      {"measurement": "MIC of cefalexin (LEX)", "setting": "[2]; with inhibitor at 4 μg/mL", "value": 2, "unit": "µg/mL"},
      {"measurement": "MIC of cefdinir (CDR)", "setting": "[2]; with inhibitor at 4 μg/mL", "value": 2, "unit": "µg/mL"},
      {"measurement": "MIC of cefixime (CFM)", "setting": "[2]; with inhibitor at 4 μg/mL", "value": 0.5, "unit": "µg/mL"},
      {"measurement": "MIC of ceftibuten (CTB)", "setting": "[2]; with inhibitor at 4 μg/mL", "value": 0.25, "unit": "µg/mL"},
      {"measurement": "MIC of cefalexin (LEX)", "setting": "[3]; with inhibitor at 1 μg/mL", "value": 0.5, "unit": "µg/mL"},
      {"measurement": "MIC of cefdinir (CDR)", "setting": "[3]; with inhibitor at 1 μg/mL", "value": 0.5, "unit": "µg/mL"},
      {"measurement": "MIC of cefixime (CFM)", "setting": "[3]; with inhibitor at 1 μg/mL", "value": 4, "unit": "µg/mL"},
      {"measurement": "MIC of ceftibuten (CTB)", "setting": "[3]; with inhibitor at 1 μg/mL", "value": 0.25, "unit": "µg/mL"},
      {"measurement": "MIC of cefalexin (LEX)", "setting": "[3]; with inhibitor at 2 μg/mL", "value": 1, "unit": "µg/mL"},
      {"measurement": "MIC of cefdinir (CDR)", "setting": "[3]; with inhibitor at 2 μg/mL", "value": 1, "unit": "µg/mL"},
      {"measurement": "MIC of cefixime (CFM)", "setting": "[3]; with inhibitor at 2 μg/mL", "value": 4, "unit": "µg/mL"},
      {"measurement": "MIC of ceftibuten (CTB)", "setting": "[3]; with inhibitor at 2 μg/mL", "value": 0.25, "unit": "µg/mL"},
      {"measurement": "MIC of cefalexin (LEX)", "setting": "[3]; with inhibitor at 4 μg/mL", "value": 0.5, "unit": "µg/mL"},
      {"measurement": "MIC of cefdinir (CDR)", "setting": "[3]; with inhibitor at 4 μg/mL", "value": 0.5, "unit": "µg/mL"},
      {"measurement": "MIC of cefixime (CFM)", "setting": "[3]; with inhibitor at 4 μg/mL", "value": 1, "unit": "µg/mL"},
      {"measurement": "MIC of ceftibuten (CTB)", "setting": "[3]; with inhibitor at 4 μg/mL", "value": 0.125, "unit": "µg/mL"},
      {"measurement": "MIC of cefalexin (LEX)", "setting": "[4]; with inhibitor at 1 μg/mL", "value": 2, "unit": "µg/mL"},
      {"measurement": "MIC of cefdinir (CDR)", "setting": "[4]; with inhibitor at 1 μg/mL", "value": 2, "unit": "µg/mL"},
      {"measurement": "MIC of cefixime (CFM)", "setting": "[4]; with inhibitor at 1 μg/mL", "value": 1, "unit": "µg/mL"},
      {"measurement": "MIC of ceftibuten (CTB)", "setting": "[4]; with inhibitor at 1 μg/mL", "value": 0.5, "unit": "µg/mL"},
      {"measurement": "MIC of cefalexin (LEX)", "setting": "[4]; with inhibitor at 2 μg/mL", "value": 2, "unit": "µg/mL"},
      {"measurement": "MIC of cefdinir (CDR)", "setting": "[4]; with inhibitor at 2 μg/mL", "value": 2, "unit": "µg/mL"},
      {"measurement": "MIC of cefixime (CFM)", "setting": "[4]; with inhibitor at 2 μg/mL", "value": 0.5, "unit": "µg/mL"},
      {"measurement": "MIC of ceftibuten (CTB)", "setting": "[4]; with inhibitor at 2 μg/mL", "value": 0.125, "unit": "µg/mL"},
      {"measurement": "MIC of cefalexin (LEX)", "setting": "[4]; with inhibitor at 4 μg/mL", "value": 1, "unit": "µg/mL"},
      {"measurement": "MIC of cefdinir (CDR)", "setting": "[4]; with inhibitor at 4 μg/mL", "value": 1, "unit": "µg/mL"},
      {"measurement": "MIC of cefixime (CFM)", "setting": "[4]; with inhibitor at 4 μg/mL", "value": 0.5, "unit": "µg/mL"},
      {"measurement": "MIC of ceftibuten (CTB)", "setting": "[4]; with inhibitor at 4 μg/mL", "value": 0.25, "unit": "µg/mL"},
      {"measurement": "MIC of cefalexin (LEX)", "setting": "[5]; with inhibitor at 1 μg/mL", "value": 0.5, "unit": "µg/mL"},
      {"measurement": "MIC of cefdinir (CDR)", "setting": "[5]; with inhibitor at 1 μg/mL", "value": 0.5, "unit": "µg/mL"},
      {"measurement": "MIC of cefixime (CFM)", "setting": "[5]; with inhibitor at 1 μg/mL", "value": 4, "unit": "µg/mL"},
      {"measurement": "MIC of ceftibuten (CTB)", "setting": "[5]; with inhibitor at 1 μg/mL", "value": 0.25, "unit": "µg/mL"},
      {"measurement": "MIC of cefalexin (LEX)", "setting": "[5]; with inhibitor at 2 μg/mL", "value": 0.25, "unit": "µg/mL"},
      {"measurement": "MIC of cefdinir (CDR)", "setting": "[5]; with inhibitor at 2 μg/mL", "value": 0.25, "unit": "µg/mL"},
      {"measurement": "MIC of cefixime (CFM)", "setting": "[5]; with inhibitor at 2 μg/mL", "value": 4, "unit": "µg/mL"},
      {"measurement": "MIC of ceftibuten (CTB)", "setting": "[5]; with inhibitor at 2 μg/mL", "value": 0.25, "unit": "µg/mL"},
      {"measurement": "MIC of cefalexin (LEX)", "setting": "[5]; with inhibitor at 4 μg/mL", "value": 0.5, "unit": "µg/mL"},
      {"measurement": "MIC of cefdinir (CDR)", "setting": "[5]; with inhibitor at 4 μg/mL", "value": 0.5, "unit": "µg/mL"},
      {"measurement": "MIC of cefixime (CFM)", "setting": "[5]; with inhibitor at 4 μg/mL", "value": 2, "unit": "µg/mL"},
      {"measurement": "MIC of ceftibuten (CTB)", "setting": "[5]; with inhibitor at 4 μg/mL", "value": 0.125, "unit": "µg/mL"},
      {"measurement": "MIC of cefalexin (LEX)", "setting": "[6]; with inhibitor at 1 μg/mL", "value": 0.125, "unit": "µg/mL"},
      {"measurement": "MIC of cefdinir (CDR)", "setting": "[6]; with inhibitor at 1 μg/mL", "value": 0.125, "unit": "µg/mL"},
      {"measurement": "MIC of cefixime (CFM)", "setting": "[6]; with inhibitor at 1 μg/mL", "value": 0.5, "unit": "µg/mL"},
      {"measurement": "MIC of ceftibuten (CTB)", "setting": "[6]; with inhibitor at 1 μg/mL", "value": 0.06, "unit": "µg/mL"},
      {"measurement": "MIC of cefalexin (LEX)", "setting": "[6]; with inhibitor at 2 μg/mL", "value": 0.25, "unit": "µg/mL"},
      {"measurement": "MIC of cefdinir (CDR)", "setting": "[6]; with inhibitor at 2 μg/mL", "value": 0.25, "unit": "µg/mL"},
      {"measurement": "MIC of cefixime (CFM)", "setting": "[6]; with inhibitor at 2 μg/mL", "value": 0.25, "unit": "µg/mL"},
      {"measurement": "MIC of ceftibuten (CTB)", "setting": "[6]; with inhibitor at 2 μg/mL", "value": 0.06, "unit": "µg/mL"},
      {"measurement": "MIC of cefalexin (LEX)", "setting": "[6]; with inhibitor at 4 μg/mL", "value": 0.125, "unit": "µg/mL"},
      {"measurement": "MIC of cefdinir (CDR)", "setting": "[6]; with inhibitor at 4 μg/mL", "value": 0.125, "unit": "µg/mL"},
      {"measurement": "MIC of cefixime (CFM)", "setting": "[6]; with inhibitor at 4 μg/mL", "value": 0.25, "unit": "µg/mL"},
      {"measurement": "MIC of ceftibuten (CTB)", "setting": "[6]; with inhibitor at 4 μg/mL", "value": 0.06, "unit": "µg/mL"}
    ]}
  ]
}
